Data published in patent US9707244B2, “Compositions and methods for treating conditions that affect epidermis” (Gencia Corporation, priority 2013, dated 2017).
“Also recorded” adds a separate entry of the source.

Experiments:
[1] = test system: AG16409 fibroblasts from a child; test: 3D collagen cell culture system, young skin fibroblasts; type: cell-based, human
Method: (§1) The effects of Mitocreatine on skin fibroblasts cultured in a 3D matrix to better simulate in vivo milieu were examined. The cells were visualized by phase contrast light microscopy and their biological response to different concentrations of Mitocreatine evaluated. The 3D Collagen Cell Culture System from Millipore (Catalogue number ECM 675) was utilized.
(§2) All liquids were prepared according to manufacturer's instructions, and kept on ice. Tissue culture plates were coated with collagen by pipetting 500 μL of chilled Collagen Gel Solution into each well of a 24 well tissue culture plate. The plate was immediately transferred to a 37° C. incubator for 60 min to initiate polymerization of the collagen.
(§3) After the formation of the collagen gel, AG11073 and AG16409 cells were harvested and re-suspended at 4×10^5/mL and 1×10^6 cells were seeded onto the collagen gel. The cells were obtained using the procedure as described in Example 1.
(§4) After overnight incubation at 37° C. with 5% CO2 the media was replaced with fresh media containing various doses of Mitocreatine or the vehicle. Cells were visualized daily using phase contrast microscopy.
Fibroblasts from a person were cultured on a collagen matrix. Two days after seeding, cells were treated with a Mitocreatine at increasing amounts (0, 5, 15 and 25 μL). Five days post-treatment, collagen shrinkage was assayed by means of translucency.

[2] = test system: AG11073 fibroblasts from a person; test: 3D collagen cell culture system, aged skin fibroblasts; type: cell-based, human; settings: five days post-treatment
Method: as §1, §2, §3, §4
Fibroblasts from a person were cultured on a collagen matrix. Two days after seeding, cells were treated with a Mitocreatine at increasing amounts (0, 5, 15 and 25 μL). Five days post-treatment, collagen shrinkage was assayed by means of translucency. […]

[3] = test system: AG11073 senescent fibroblasts; test: Intracellular collagen type I immunolabeling and image analysis; type: cell-based, human
Method: The cell line AG11073 senescent fibroblasts, at passage 20, were plated onto a multi-chambered glass slide. Dulbecco's Modified Eagle Medium (DMEM) supplemented with the appropriate serum and antibiotics and either containing vehicle or 25 nM of Mitocreatine was added to each chamber. Cells were treated once daily with fresh media containing either vehicle or 25 nM mitocreatine for seven days. At the completion of the treatment period, the cells were washed with warm PBS and fixed with ice cold acetone. The chambers were removed and the slide immunoprobed with an anti-collagen type I antibody (ab292, Abcam). An Alexa-488 secondary antibody was used for detection and DAPI used to stain nuclei.
The cells utilized were human skin fibroblast acquired from Coriell Cell Repository. The cell line AG11073 is untransformed human skin fibroblasts from a person. The primary culture was initiated from explants of a 2 mm-punch biopsy. The cell line AG16409 is untransformed human skin fibroblasts from a person. Aged senescent fibroblasts (Coriell AG11073) were cultured for 7 days with either vehicle or 25 nM mitocreatine. Cells were probed with anti-collagen type I antibody (green) and DAPI (blue) for nuclei to assess changes in collagen type I expression.
Cell area and mean pixel intensity of the green fluorescence was acquired using Image J software. Image analysis supports an increase in cell area as well as an increase in intracellular collagen type I.
Image data from the immunolabeling of collage type I study was also used to quantify the amount of collagen immunolabeling in the AG11073 senescent fibroblast treated with 25 nM Mitocreatine in vehicle for seven days.

C57BL/6J mice = test: Fore-limb grip strength test; type: in vivo; settings: 10, 20, 30 mg/kg p.o. once daily for 30 days
Method: Group Setting: C57BL/6J mice were randomly assigned into five groups with different treatment started with balanced full-paw and fore-paw grip strength. Seventy five female mice were dosed at 4 PM for 30 consecutive days (qd). • 1. Vehicle (p.o. via oral gavage once daily for 30 days, n=15) • 2. Creatine (300 mg/kg, p.o. via oral gavage once daily for 30 days, n=15) • 3. Mitocreatine (10 mg/kg, p.o. via oral gavage once daily for 30 days, n=15) • 4. Mitocreatine (20 mg/kg, p.o. via oral gavage once daily for 30 days, n=15) • 5. Mitocreatine (30 mg/kg, p.o. via oral gavage once daily for 30 days, n=15). One hundred female mice were tested before dosing for a baseline of grip strength. 75 mice were selected and randomly assigned into 5 groups for different treatment. Seventy five mice (group 1-5) were test on day 31. Mice were allowed to acclimate to the testing room for at least 30 min before tested. All animals were marked on the tail with a permanent mark pen. Mouse was lowered towards the grid on the push-pull gauge until it grabbed with both front paws Animal was gently pulled backwards by the tail with an angle less than 15° until it released its grip of both fore-paws. The maximal fore-limb grip force was recorded on the strain gauge. Test was repeated 3 times with 15 min interval each time and the average was used. […]

[4] = test system: Human hepatocellular liver carcinoma cell line HepG2; test: Survival of HepG2 cells treated with chemotherapeutic agents (DAPI fluorescence); type: cell-based; settings: Cetuximab, Gemcitabine or Temozolomide; 48 hours
Method: Fibroblasts were incubated with increasing amounts of Mitocreatine and certain anti-neoplastic agents, such as Cetuximab, Gemcitabine and Temozolomide. After incubation, cells were washed and the number of adherent (i.e. surviving) cells was assessed by DAPI fluorescence, which was measured utilizing a plate reader (PHERA Star FS from BMG Labtech). For these experiments two kinds of cells were used. Either the Human hepatocellular liver carcinoma cell line HepG2, or the BJ human fibroblast cells, which are established from normal human foreskin. […] Mitocreatine and the antineoplastic agent were added simultaneously.

[5] = test system: ARPE-19 cells, a retinal pigmented epithelial cell line; test: DCFDA ROS production in senescent ARPE-19 cells; type: cell-based, human; settings: forty-eight hours after treatment; increasing concentrations
Method: In the present invention ARPE-19 cells were used to evaluate whether Mitocreatine improves mitochondrial parameters and reduces ROS in a cell model of AMD. The cells were prematurely senescenced according to the protocol of Glotin et al. (2008). ARPE-19 cells, a retinal pigmented epithelial cell line, were prematurely senesced according to the protocol of Glotin et al. (2008). Cells were plated in a 96 well plate for analysis of reactive oxygen species (ROS) production using DCFDA, a fluorogenic dye that is oxidized by hydroxyl, peroxyl and other ROS.

## CN(CC(=O)NCCC[P+](c1ccccc1)(c1ccccc1)c1ccccc1)C(=N)N.Cl.[Cl-] [Mitocreatine, N^2-[ammonio(imino)methyl]-N^2-methyl-N-[3-(triphenylphosphonio)propyl] glycinamide dichloride]
[1]
  collagen translucency: No change
[2]
  collagen matrix translucency: dose-dependent increase
[3]; 25 nM for seven days, fluorescent intensity per area unit normalized to untreated cells
  induction in collagen type I levels: 7 fold
[3]; 25 nM once daily for seven days
  intracellular collagen type I: significant increase in intracellular collagen; also recorded: significant increase in collagen type I expression
[3]; 25 nM once daily for seven days, senescent cells
  cell numbers / cell proliferation: significant increase in cell numbers; also recorded: induced cell proliferation
C57BL/6J mice
  strength (fore limb grip force): Increases Endurance and Strength
[4]
  survival of HepG2 cells: not improve the survival
[5]
  ROS production: dose-independent decrease
